Experimental data taken from US20240299352A1, “COMBINATION THERAPIES WITH SETD2 INHIBITORS” (Epizyme, Inc., priority 2021, published 2024).

Assays:
[1] = tested on: diffuse large B-cell lymphoma (DLBCL) cell lines; test: Co-treatment combination study with Cpd. No. 15, further cell lines (Table F), CellTiter-Glo viability, Loewe Volume; assay type: cell-based; conditions: for Combination effect with Cpd. No. 15 (Loewe Volume class), Ri1: co-treatment with Cpd. No. 15, cell line Ri1 (Cat. No. 96090512-1VL); for Combination effect with Cpd. No. 15 (Loewe Volume class), TMD8: co-treatment with Cpd. No. 15, cell line TMD8 (Cat. No. M-097); for Combination effect with Cpd. No. 15 (Loewe Volume class), WILL1: co-treatment with Cpd. No. 15, cell line WILL1 (Cat. No. ACC 651)
Experimental: (§1) Mantle cell lymphoma (MCL) and diffuse large B-cell lymphoma (DLBCL) cell line cultures in log-linear growth rate were treated with combinations of Cpd. No. 15 and combination partners according to a co-treatment model. […] No. 15 and the combination partner. […] Each combination was tested in quadruplicate wells. The final concentration of DMSO (vehicle) in the assay was 0.1% v/v. Fifty microliters of cell line suspension were directly dispensed to the assay-ready plates with an automated multichannel dispenser on to 384-well assay-ready plates. Assay plates were incubated for seven days unless otherwise indicated in a humidified atmosphere of 5% CO2 at 37° C. Quantification of the effect of single agents or combinations on cell viability was performed through measurement of cellular adenosine triphosphate (ATP) using a CellTiter-Glo® (Promega, Madison, WI) Luminescent Cell Viability Assay. Luminescence was detected using a SpectraMax M5 microplate reader (Molecular Devices, Sunnyvale, CA). Concentration response plots were generated in GraphPad Prism version 7.0 for Windows, GraphPad Software, (La Jolla, California) and curves fitted to a four-parameter logistic model with variable slope. Percent of inhibition was calculated at each treatment concentration.

[2] = tested on: diffuse large B-cell lymphoma (DLBCL) cell lines; test: Pre-treatment model combination study with Cpd. No. 15 (7 days pre-treatment, then combination; Table G), CellTiter-Glo viability, Loewe Volume; conditions: 7 days pre-treatment with Cpd. No. 15, then combination
[3] = tested on: DOHH2; test: Co-treatment combination study with Cpd. No. 15, CellTiter-Glo viability, Loewe Volume; assay type: cell-based; conditions: in combination with Cpd. No. 15, seven days, DLBCL cell line DOHH2
Experimental: as §1

[4] = tested on: SUDHL5; test: as above; assay type: cell-based; conditions: in combination with Cpd. No. 15, seven days, DLBCL cell line SUDHL5
Experimental: as §1

[5] = tested on: SUDHL2; test: as above; assay type: cell-based; conditions: in combination with Cpd. No. 15, seven days, DLBCL cell line SUDHL2
Experimental: as §1

[6] = tested on: HT; test: as above; assay type: cell-based; conditions: in combination with Cpd. No. 15, seven days, DLBCL cell line HT
Experimental: as §1

[7] = tested on: WILL2; test: as above; assay type: cell-based; conditions: in combination with Cpd. No. 15, seven days, DLBCL cell line WILL2
Experimental: as §1

[8] = tested on: SUDHL10; test: as above; assay type: cell-based; conditions: in combination with Cpd. No. 15; 5-Day Cotreatment; DLBCL cell line SUDHL10
Experimental: as §1

[9] = tested on: TOLEDO; test: as above; assay type: cell-based; conditions: in combination with Cpd. No. 15, seven days, DLBCL cell line TOLEDO
Experimental: as §1

[10] = tested on: Pfeiffer; test: as above; assay type: cell-based; conditions: in combination with Cpd. No. 15, seven days, DLBCL cell line Pfeiffer
Experimental: as §1

[11] = tested on: SUDHL8; test: as above; assay type: cell-based; conditions: in combination with Cpd. No. 15, seven days, DLBCL cell line SUDHL8
Experimental: as §1

[12] = tested on: KARPAS422; test: as above; assay type: cell-based; conditions: in combination with Cpd. No. 15, seven days, DLBCL cell line KARPAS422
Experimental: as §1

[13] = tested on: WSUNHL; test: as above; assay type: cell-based; conditions: in combination with Cpd. No. 15, seven days, DLBCL cell line WSUNHL
Experimental: as §1

[14] = tested on: DB; test: as above; assay type: cell-based; conditions: in combination with Cpd. No. 15, seven days, DLBCL cell line DB
Experimental: as §1

[15] = tested on: SUDHL4; test: as above; assay type: cell-based; conditions: in combination with Cpd. No. 15, seven days, DLBCL cell line SUDHL4
Experimental: as §1

[16] = tested on: RL; test: as above; assay type: cell-based; conditions: in combination with Cpd. No. 15; 6-Day Cotreatment; DLBCL cell line RL
Experimental: as §1

[17] = tested on: WSUDLCL2; test: as above; assay type: cell-based; conditions: in combination with Cpd. No. 15, seven days, DLBCL cell line WSUDLCL2
Experimental: as §1

[18] = tested on: SUDHL6; test: as above; assay type: cell-based; conditions: in combination with Cpd. No. 15, seven days, DLBCL cell line SUDHL6
Experimental: as §1

[19] = tested on: MINO; test: as above; assay type: cell-based; conditions: in combination with Cpd. No. 15, seven days, mantle cell lymphoma cell line MINO (CRL-3000)
Experimental: as §1

[20] = tested on: GRANTA519; test: as above; assay type: cell-based; conditions: in combination with Cpd. No. 15, seven days, mantle cell lymphoma cell line GRANTA519 (ACC 342)
Experimental: as §1

[21] = tested on: JVM2; test: as above; assay type: cell-based; conditions: in combination with Cpd. No. 15, seven days, mantle cell lymphoma cell line JVM2 (CRL-3002)
Experimental: as §1

[22] = tested on: JEKO1; test: as above; assay type: cell-based; conditions: in combination with Cpd. No. 15, seven days, mantle cell lymphoma cell line JEKO1 (CRL-3006)
Experimental: as §1

[23] = tested on: REC1; test: as above; assay type: cell-based; conditions: in combination with Cpd. No. 15, seven days, mantle cell lymphoma cell line REC1 (CRL-3004)
Experimental: as §1

[24] = tested on: Z138; test: as above; assay type: cell-based; conditions: in combination with Cpd. No. 15, seven days, mantle cell lymphoma cell line Z138 (CRL-3001)
Experimental: as §1

[25] = tested on: MAVER1; test: as above; assay type: cell-based; conditions: in combination with Cpd. No. 15, seven days, mantle cell lymphoma cell line MAVER1 (CRL-3008)
Experimental: as §1

Compound	Combination effect with Cpd. No. 15 (Loewe Volume class), Ri1 [1]	Combination effect with Cpd. No. 15 (Loewe Volume class), TMD8 [1]	Combination effect with Cpd. No. 15 (Loewe Volume class), WILL1 [1]	Combination effect (Loewe Volume) DOHH2 [3]	Combination effect (Loewe Volume) SUDHL5 [4]	Combination effect (Loewe Volume) SUDHL2 [5]	Combination effect (Loewe Volume) HT [6]	Combination effect (Loewe Volume) WILL2 [7]	Combination effect (Loewe Volume) SUDHL10 [8]	Combination effect (Loewe Volume) TOLEDO [9]	Combination effect (Loewe Volume) Pfeiffer [10]	Combination effect (Loewe Volume) SUDHL8 [11]	Combination effect (Loewe Volume) KARPAS422 [12]	Combination effect (Loewe Volume) WSUNHL [13]	Combination effect (Loewe Volume) DB [14]	Combination effect (Loewe Volume) SUDHL6 [18]	also measured
N.N.O=C([O-])C1(C(=O)[O-])CCC1.[Pt+2] [Carboplatin, carboplatin]	Additivity (between 1 and −1: additivity)	Additivity (between 1 and −1: additivity)	Additivity (between 1 and −1: additivity)	Additivity (between 1 and −1: additivity)	Additivity (between 1 and −1: additivity)	Additivity (between 1 and −1: additivity)	Additivity (between 1 and −1: additivity)	Additivity (between 1 and −1: additivity)	Additivity (between 1 and −1: additivity)	Additivity (between 1 and −1: additivity)	Additivity (between 1 and −1: additivity)	Synergy (VLoewe>1: synergy)	Additivity (between 1 and −1: additivity)	Synergy (VLoewe>1: synergy)	Additivity (between 1 and −1: additivity)	–	Combination effect with Cpd. No. 15 (Loewe Volume class), Farage ([2]; cell line Farage (Cat. No. CRL-2630)): Additivity (between 1 and −1: additivity); Combination effect with Cpd. No. 15 (Loewe Volume class), HT ([2]; cell line HT (Cat. No. CRL-2631)): Synergy (VLoewe>1: synergy); Combination effect with Cpd. No. 15 (Loewe Volume class), OCILY7 ([2]; cell line OCILY7 (Cat. No. ACC 688)): Additivity (between 1 and −1: additivity); Combination effect with Cpd. No. 15 (Loewe Volume class), WILL2 ([2]; cell line WILL2 (Cat. No. ACC 652)): Synergy (VLoewe>1: synergy)
CNC[C@@H](O)COc1ccc(Cl)c(-c2nc(-c3c(C)noc3C)c(C)c(N3CC4(CCN(C(=O)OC)CC4)C3)n2)c1 [EPZ-2302]	Synergy (VLoewe>1: synergy)	Synergy (VLoewe>1: synergy)	Synergy (VLoewe>1: synergy)	Synergy (VLoewe>1: synergy)	Additivity (between 1 and −1: additivity)	Synergy (VLoewe>1: synergy)	Synergy (VLoewe>1: synergy)	Synergy (VLoewe>1: synergy)	No Effect	Synergy (VLoewe>1: synergy)	No Effect	No Effect	Synergy (VLoewe>1: synergy)	Synergy (VLoewe>1: synergy)	No Effect	Synergy (VLoewe>1: synergy)	Combination effect (Loewe Volume) SUDHL4 [15]: Synergy (VLoewe>1: synergy); Combination effect (Loewe Volume) RL [16]: Synergy (VLoewe>1: synergy); Combination effect (Loewe Volume) WSUDLCL2 [17]: Synergy (VLoewe>1: synergy)
rituximab	Additivity (between 1 and −1: additivity)	No Effect	No Effect	Synergy (VLoewe>1: synergy)	–	No Effect	Additivity (between 1 and −1: additivity)	Additivity (between 1 and −1: additivity)	Additivity (between 1 and −1: additivity)	Additivity (between 1 and −1: additivity)	No Effect	Additivity (between 1 and −1: additivity)	No Effect	Additivity (between 1 and −1: additivity)	No Effect	Synergy (VLoewe>1: synergy)	Combination effect (Loewe Volume) MINO [19]: No Effect; Combination effect (Loewe Volume) GRANTA519 [20]: Additivity (between 1 and −1: additivity); Combination effect (Loewe Volume) JVM2 [21]: Additivity (between 1 and −1: additivity); Combination effect (Loewe Volume) JEKO1 [22]: Synergy (VLoewe>1: synergy); Combination effect (Loewe Volume) REC1 [23]: Additivity (between 1 and −1: additivity); Combination effect (Loewe Volume) Z138 [24]: No Effect; Combination effect (Loewe Volume) MAVER1 [25]: Synergy (VLoewe>1: synergy)
